Laboratory results published in PMC4792926, “G9a-mediated methylation of ERα links the PHF20/MOF histone acetyltransferase complex to hormonal gene expression” (Nature Communications, 2016).
Ends that are not written are not given here.

Assays:
[1] = tested on: S. pombe SPF30 Tudor; assay: Chromatin-associated domain array (CADOR 5.0), SPF30 Tudor; format: binding; details: biotinylated peptide on CADOR 5.0; K235 methylation-dependent
Method: (§1) For peptide pulldown assays, 1 μg of biotinylated histone and ERα peptides with or without methylation were incubated with 1 μg GST-PHF20 Tudor in binding buffer (50 mM Tris-HCl, pH 7.5, 300 mM NaCl, 0.1% NP-40 and 1 mM PMSF) for overnight. Streptavidin beads (GE Healthcare) were added into the mixture and incubated for 1 h with rotation. The beads were then washed three times, and analysed by SDS−PAGE and western blotting. For the protein domain array, the CADOR 5.0 protein domain array was probed with biotinylated ER peptides as described previously. The protein domains spotted on the CADOR 5.0 array are listed in the Supplementary Fig. 5. […]
(§2) Recombinat Proteins Construct Sources a - Cheryl Arrowsmith d - Jiemin W ong g - Albert Jeltsch j - Judd Rice n - Alla Grishok b - Subhashini Sadasivem e - Or Gozani h - Yi Zhang k - Marc Timmers o - Olli Silvennoinen c - Jocelyn Coté f - Thomas Jenuwein i - Adrian Bird l - Michelle Barton p - Logan Donaldson […]
(§3) Supplementary Figure 5. Domain layout of the Chromatin-Associated Domain Array […]
(§4) (1 picture or pasted object on this page, not shown here)

[2] = tested on: 53BP1 Tudor; assay: Chromatin-associated domain array (CADOR 5.0), 53BP1 Tudor; format: binding; details: biotinylated peptide on CADOR 5.0; K235 methylation-dependent
Method: as §1, §2, §3, §4

[3] = tested on: PHF20/PHF20L Tudor domains; assay: Chromatin-associated domain array (CADOR 5.0), PHF20/PHF20L Tudors; format: binding; details: biotinylated peptide on CADOR 5.0; K235 methylation-dependent
Method: as §1, §2, §3, §4

[4] = tested on: PHF20 Tudor; assay: Peptide pull-down with GST-PHF20 Tudor; format: binding, human; details: 1 μg biotinylated peptide, 1 μg GST-PHF20 Tudor, 50 mM Tris-HCl pH 7.5, 300 mM NaCl, 0.1% NP-40, overnight
Method: (§5) The pGEX constructs encoding human G9a, ERα and ERα fragments including AF1 (aa 1–190), DBD (aa 175–250), hinge (aa 251–310), DBD+hinge (aa 175–310), LBD (aa 305–596) and the second Tudor domain of PHF20 (aa 58–148) were expressed in E. coli Rosetta (DE3) pLysS cells. After induction with IPTG (0.5 mM) for 16–18 h at 18 °C, cells were collected by centrifugation at 5,000g, lysed by sonication and purified using Glutathione Sepharose 4B beads (GE Healthcare). For the NMR titration assays, PHF20 Tudor was expressed in the ^15NH4Cl-supplemented (Sigma) minimal media, and the GST tag was cleaved with PreScission protease, and the cleaved protein was concentrated using Millipore concentrators (Millipore).
(§6) For peptide pulldown assays, 1 μg of biotinylated histone and ERα peptides with or without methylation were incubated with 1 μg GST-PHF20 Tudor in binding buffer (50 mM Tris-HCl, pH 7.5, 300 mM NaCl, 0.1% NP-40 and 1 mM PMSF) for overnight. Streptavidin beads (GE Healthcare) were added into the mixture and incubated for 1 h with rotation. The beads were then washed three times, and analysed by SDS−PAGE and western blotting. For the protein domain array, the CADOR 5.0 protein domain array was probed with biotinylated ER peptides as described previously. The protein domains spotted on the CADOR 5.0 array are listed in the Supplementary Fig. 5.

[5] = tested on: PHF20 Tudor; assay: 1H,15N HSQC NMR titration of PHF20 Tudor; format: binding, human
Method: as §5
The ^1H,^15N HSQC spectra of 0.2 mM uniformly ^15N-labelled PHF20 Tudor (in 25 mM Tris-HCl, pH 7.5 buffer, 150 mM NaCl, 5 mM dithiothreitol and ∼8% D2O) were collected at 298 K on a Varian INOVA 600 MHz spectrometer. Binding was monitored by titrating unmodified ERα and ERαK235me2 peptides (aa 228–239) against the PHF20 Tudor domain. NMR data were processed and analysed with NMRPipe and NMRDraw as previously described. NMR assignments for PHF20 Tudor were taken from the Biological Magnetic Resonance Data Bank (BMRB 17673)[31].

[6] = tested on: PHF20 Tudor W97A and Y103A mutants; assay: Peptide pull-down with PHF20 Tudor mutants; format: binding, human; details: W97A and Y103A mutants of PHF20 Tudor
Method: as §5, §6

binding to PHF20 Tudor W97/Y103 mutants (pull-down) [6] | Substance | recognition by S. pombe SPF30 Tudor [1] | recognition by 53BP1 Tudor [2] | recognition by PHF20/PHF20L Tudor [3] | interaction with PHF20 Tudor (pull-down) [4] | chemical shift changes of PHF20 Tudor ([5]; 0.2 mM 15N-labelled PHF20 Tudor, 25 mM Tris-HCl pH 7.5, 150 mM NaCl, 298 K, 600 MHz) | backbone amide resonances A95, W97, Y103, A105, V118, F120, D122-Q126 of PHF20 Tudor ([5]; HSQC titration, 0.2 mM PHF20 Tudor, pH 7.5, 298 K)
 | ERα peptide (aa 227–244) bearing dimethylated K235: ERα peptide (aa 227–244) bearing dimethylated K235, biotinylated, used to probe the CADOR array (CTIDKNRRK(Me2)SCQACRLRK; cysteine pairing not given here; also: biotin, end not given here) | recognized the ERα peptide in a K235 methylation-dependent manner | recognized the ERα peptide in a K235 methylation-dependent manner | recognized the ERα peptide in a K235 methylation-dependent manner |  |  | 
abolished the binding | ERαK235me2 peptide: ERα peptide dimethylated at K235; aa 228–239 in NMR titrations, biotinylated in pull-downs (TIDKNRRK(Me2)SCQA; also: biotinylated in pull-downs, end not given here; UniProt P03372 228-239, looked up, fragment) |  |  |  | strong interaction | large chemical shift changes | significant shifting and broadening
